Test results from PubChem BioAssay (NCI).
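Five compound concentrations were applied to cells in 96-well plates for 48 hours; endpoints were derived by simple linear interpolation of the resulting dose-response curve. GI50: concentration for 50% inhibition of growth. TGI denotes the concentration required for complete inhibition of growth.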

How the values were obtained:
Experiment in all cases: growth of human tumour cells (NCI), 48 h
M14 melanoma = system: M14 melanoma
786-0 renal = system: 786-0 renal
HS 578T breast = system: HS 578T breast
EKVX NSCLC = system: EKVX NSCLC
BT-549 breast = system: BT-549 breast
TK-10 renal = system: TK-10 renal
MOLT-4 leukemia = system: MOLT-4 leukemia
OVCAR-3 ovarian = system: OVCAR-3 ovarian
RXF 393 renal = system: RXF 393 renal
HOP-92 NSCLC = system: HOP-92 NSCLC

Structure (SMILES)	GI50 (M14 melanoma)	TGI (M14 melanoma)	GI50 (786-0 renal)	TGI (786-0 renal)	GI50 (HS 578T breast)	TGI (HS 578T breast)	GI50 (EKVX NSCLC)	TGI (EKVX NSCLC)	GI50 (BT-549 breast)	TGI (BT-549 breast)	GI50 (TK-10 renal)	TGI (TK-10 renal)	GI50 (MOLT-4 leukemia)	TGI (MOLT-4 leukemia)	GI50 (OVCAR-3 ovarian)	TGI (OVCAR-3 ovarian)	GI50 (RXF 393 renal)	TGI (RXF 393 renal)	TGI (HOP-92 NSCLC)	GI50 (HOP-92 NSCLC)
NS(=O)(=O)c1ccc(N=Nc2c(=O)[nH]c3ccc4[nH]cccc4c23)cc1	0.82 µM	5.64 µM	0.577 µM	> 25 µM	0.575 µM	> 6.85 µM	2.1 µM	> 25 µM	0.498 µM	1.72 µM	0.699 µM	2.24 µM	0.632 µM	3.31 µM	0.375 µM	1.98 µM	0.15 µM	0.449 µM	–	–
CCOc1cc[n+](C(=C=[N-])C#N)cc1	–	> 100 µM	–	> 100 µM	–	–	–	> 100 µM	–	–	–	> 100 µM	–	> 100 µM	–	> 100 µM	–	> 100 µM	> 100 µM	–
OCC(O)C(OC1OC(CO)C(O)C(O)C1O)c1nn(-c2ccc(Cl)cc2)c2nc3cc(Cl)ccc3nc12 (configuration not stated)	–	> 100 µM	–	> 100 µM	–	–	–	> 100 µM	–	–	–	> 100 µM	–	> 100 µM	–	> 100 µM	–	> 100 µM	–	–
Cc1ccc(SSCCCCS(=O)O)cc1	–	32.6 µM	–	> 100 µM	–	–	–	55.6 µM	–	–	–	46.8 µM	–	> 100 µM	–	67.7 µM	–	29.1 µM	–	–
C(=NCCN=Cc1cccc2ccccc12)c1cccc2ccccc12	–	–	–	> 100 µM	–	–	–	> 100 µM	–	–	–	> 100 µM	–	> 100 µM	–	–	–	> 100 µM	–	–
CC(=O)Nc1ccc(OCC(O)CO)cc1 (configuration not stated)	–	> 100 µM	–	70.2 µM	–	–	–	> 100 µM	–	–	–	> 100 µM	–	> 100 µM	–	> 100 µM	–	> 100 µM	> 100 µM	–
CCOc1ccccc1NC(=O)C(=O)c1c(O)c2ccc(O)cc2oc1=O	–	> 100 µM	–	> 100 µM	–	–	–	> 100 µM	–	–	–	> 100 µM	–	> 100 µM	–	> 100 µM	–	> 100 µM	–	–
O=C1OC(=O)C2C1C1C(c3ccccc3)=C(c3ccccc3)C2(O)C2C(=O)OC(=O)C12 (configuration not stated)	–	> 100 µM	–	> 100 µM	–	–	–	> 100 µM	–	–	–	> 100 µM	–	> 100 µM	–	> 100 µM	–	–	> 100 µM	–
O=S1Cc2ccccc2CSS1 (configuration not stated)	–	27 µM	–	29.1 µM	–	–	–	53.9 µM	–	–	–	33.2 µM	–	52.1 µM	–	31.1 µM	–	13.8 µM	31.8 µM	–
Nc1nc(N)c(-c2ccc(Cl)cc2)c(/C=C/c2ccc([N+](=O)[O-])cc2)n1	7.15 µM	> 100 µM	5.81 µM	44.9 µM	9.97 µM	> 100 µM	–	–	13.1 µM	90.3 µM	–	–	8.27 µM	> 100 µM	5.76 µM	31.1 µM	–	–	–	–
CC1CCC2[C@@H](C)COC3O[C@]4(C)CCC1C32OO4 (some centres not stated)	–	> 100 µM	–	> 100 µM	–	–	–	> 100 µM	–	–	–	> 100 µM	–	–	–	> 100 µM	–	> 100 µM	> 100 µM	–
COc1cc(OC)c2c(c1Cl)O[C@]1(C2=O)C(OCc2ccccc2)=CC(=O)C[C@H]1C	0.612 µM	40.5 µM	0.944 µM	79.7 µM	3.17 µM	32.5 µM	–	–	2.28 µM	21.1 µM	4.34 µM	63.2 µM	0.826 µM	8.79 µM	0.986 µM	11.4 µM	0.899 µM	29.1 µM	–	–
C/C(=N\NS(=O)(=O)c1ccccc1)c1ccc[n+]([O-])n1	–	> 100 µM	–	> 100 µM	–	–	–	> 100 µM	–	–	–	–	–	> 100 µM	–	> 100 µM	–	–	> 100 µM	–
COc1ccc2c(c1)C(=O)c1c-2n(CCCNCCO)c(=O)c2cc([N+](=O)[O-])ccc12	< 0.01 µM	0.117 µM	< 0.01 µM	< 0.01 µM	–	–	0.0733 µM	4.77 µM	0.0226 µM	1.21 µM	0.28 µM	11.8 µM	< 0.01 µM	< 0.01 µM	0.0171 µM	0.586 µM	–	–	0.149 µM	< 0.0108 µM
O=S1(=O)C=C(c2ccccc2)C(c2ccccc2)=C1	1.58 µM	3.01 µM	1.49 µM	2.82 µM	1.18 µM	3.5 µM	2.08 µM	6.21 µM	–	–	–	–	–	–	1.56 µM	2.9 µM	1.62 µM	3 µM	3.19 µM	1.65 µM
O=C(OCc1ccccc1)c1ccccc1-c1c2ccc(=O)cc-2oc2cc(OCc3ccccc3)ccc12	–	44.7 µM	–	71 µM	–	–	–	> 100 µM	–	–	–	–	–	6.44 µM	–	59.1 µM	–	34 µM	17.9 µM	–
Cc1c(C(=O)Nc2ccc(Cl)cc2)nc(N)nc1-c1cccc(Cl)c1	–	> 100 µM	–	> 100 µM	–	–	–	> 100 µM	–	–	–	–	–	> 100 µM	–	> 100 µM	–	> 100 µM	95.6 µM	–
C=C1C(OCCO)OC2O[C@]3(C)CCC4[C@H](C)CCC1C24OO3 (some centres not stated)	78.4 µM	> 100 µM	24.5 µM	> 100 µM	19.9 µM	> 100 µM	23.2 µM	> 100 µM	10.8 µM	71.2 µM	–	–	1.96 µM	27.9 µM	15.6 µM	> 100 µM	–	–	–	–
CCC(=O)Oc1ccc(/C=N/NC(N)=S)nc1	2.01 µM	5.59 µM	3.19 µM	13.7 µM	30.9 µM	> 100 µM	43.7 µM	> 100 µM	11.9 µM	> 100 µM	49 µM	> 100 µM	3.3 µM	> 100 µM	3.37 µM	> 100 µM	2.93 µM	> 100 µM	–	–
